According to patent publication US12077503B2, “Substituted cyclic amides and their use as herbicides” (FMC CORPORATION, priority 2015, dated 2024):

Columns and labels:
Type in all cases: in vivo
[1] = test system: ryegrass, Italian (Italian ryegrass, Lolium multiflorum); assay: Test A preemergence; details: for Plant response rating, Ryegrass, Italian: 125 g ai/ha, preemergence, 0 to 100 scale (0 no effect, 100 complete control); for Ryegrass, Italian plant response rating (0 to 100 scale, 0 is no effect, 100 is complete control): visual injury approx. 10 d
In short: (§1)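 Visual injury scores from 0, no effect, to 100, complete control, were assigned versus untreated controls roughly 10 d after treatment in the greenhouse. Test chemicals, formulated with surfactant in a non-phytotoxic solvent, were applied to planted seeds as a preemergence soil spray or postemergence to one- to two-leaf plants 2 to 10 cm tall, in loam–sand soil.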

[2] = test system: giant foxtail (Setaria faberii); assay: Test A preemergence; details: for Plant response rating, Foxtail, Giant: 125 g ai/ha, preemergence, 0 to 100 scale (0 no effect, 100 complete control); for Foxtail, Giant plant response rating (0 to 100 scale, 0 is no effect, 100 is complete control): visual injury approx. 10 d
In short: as §1

[3] = test system: ragweed (common ragweed, Ambrosia elatior); assay: Test A preemergence; details: for Plant response rating, Ragweed: 125 g ai/ha, preemergence, 0 to 100 scale (0 no effect, 100 complete control); for Ragweed plant response rating (0 to 100 scale, 0 is no effect, 100 is complete control): visual injury approx. 10 d
In short: as §1

Kochia (Kochia scoparia) [4] = assay: Test A preemergence; details: for Plant response rating, Kochia: 125 g ai/ha, preemergence, 0 to 100 scale (0 no effect, 100 complete control); for Kochia plant response rating (0 to 100 scale, 0 is no effect, 100 is complete control): visual injury approx. 10 d
In short: as §1

[5] = test system: barnyardgrass (Echinochloa crus-galli); assay: Test A preemergence; details: for Plant response rating, Barnyardgrass: 125 g ai/ha, preemergence, 0 to 100 scale (0 no effect, 100 complete control); for Barnyardgrass plant response rating (0 to 100 scale, 0 is no effect, 100 is complete control): visual injury approx. 10 d
In short: as §1

[6] = test system: pigweed (Amaranthus retroflexus); assay: Test A preemergence; details: for Plant response rating, Pigweed: 125 g ai/ha, preemergence, 0 to 100 scale (0 no effect, 100 complete control); for Pigweed plant response rating (0 to 100 scale, 0 is no effect, 100 is complete control): visual injury approx. 10 d
[7] = test system: ryegrass, Italian (Italian ryegrass, Lolium multiflorum); assay: Test A postemergence; details: postemergence; for Ryegrass, Italian plant response rating: 125 g ai/ha, visual injury rating on 0 to 100 scale (0 no effect, 100 complete control), approx. 10 d; for Plant response rating, Ryegrass, Italian: 500 g ai/ha, 0 to 100 scale, 0 no effect, 100 complete control
In short: as §1

corn (Zea mays) = assay: Test A postemergence; details: postemergence; for Corn plant response rating: 125 g ai/ha, visual injury rating on 0 to 100 scale (0 no effect, 100 complete control), approx. 10 d; for Plant response rating, Corn: 500 g ai/ha, 0 to 100 scale, 0 no effect, 100 complete control
In short: as §1

[8] = test system: giant foxtail (Setaria faberii); assay: Test A postemergence; details: postemergence; for Foxtail, Giant plant response rating: 125 g ai/ha, visual injury rating on 0 to 100 scale (0 no effect, 100 complete control), approx. 10 d; for Plant response rating, Foxtail, Giant: 500 g ai/ha, 0 to 100 scale, 0 no effect, 100 complete control
In short: as §1

[9] = test system: ragweed (common ragweed, Ambrosia elatior); assay: Test A postemergence; details: postemergence; for Ragweed plant response rating: 125 g ai/ha, visual injury rating on 0 to 100 scale (0 no effect, 100 complete control), approx. 10 d; for Plant response rating, Ragweed: 500 g ai/ha, 0 to 100 scale, 0 no effect, 100 complete control
In short: as §1

Kochia (Kochia scoparia) [10] = assay: Test A postemergence; details: postemergence; for Kochia plant response rating: 125 g ai/ha, visual injury rating on 0 to 100 scale (0 no effect, 100 complete control), approx. 10 d; for Plant response rating, Kochia: 500 g ai/ha, 0 to 100 scale, 0 no effect, 100 complete control
In short: as §1

[11] = test system: Galium (catchweed bedstraw, Galium aparine); assay: Test A postemergence; details: postemergence; for Galium plant response rating: 125 g ai/ha, visual injury rating on 0 to 100 scale (0 no effect, 100 complete control), approx. 10 d; for Plant response rating, Galium: 500 g ai/ha, 0 to 100 scale, 0 no effect, 100 complete control
In short: as §1

[12] = test system: barnyardgrass (Echinochloa crus-galli); assay: Test A postemergence; details: for Barnyardgrass plant response rating: visual injury rating on 0 to 100 scale (0 no effect, 100 complete control)
In short: as §1

[13] = test system: wheat (Triticum aestivum); assay: Test A postemergence; details: postemergence; for Wheat plant response rating: 125 g ai/ha, visual injury rating on 0 to 100 scale (0 no effect, 100 complete control), approx. 10 d; for Plant response rating, Wheat: 500 g ai/ha, 0 to 100 scale, 0 no effect, 100 complete control
In short: as §1

[14] = test system: blackgrass (Alopecurus myosuroides); assay: Test A postemergence; details: for Blackgrass plant response rating: visual injury rating on 0 to 100 scale (0 no effect, 100 complete control)
In short: as §1

[15] = test system: pigweed (Amaranthus retroflexus); assay: Test A postemergence; details: postemergence; for Pigweed plant response rating: 125 g ai/ha, visual injury rating on 0 to 100 scale (0 no effect, 100 complete control), approx. 10 d; for Plant response rating, Pigweed: 500 g ai/ha, 0 to 100 scale, 0 no effect, 100 complete control
In short: as §1

rice (Oryra sativa) = assay: Test B flooded paddy test; details: Flood, 250 g ai/ha; 0 to 100 scale where 0 is no effect and 100 is complete control; 13 to 15 d
In short: (§2)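 Response scored visually against untreated controls, 0 = no effect and 100 = complete control, 13–15 d after treatment in the greenhouse. Compounds added to paddy water held 3 cm above soil surface. Treatment given at 2-leaf stage.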

[16] = test system: ducksalad (Heteranthera limosa); assay: Test B flooded paddy test; details: Flood, 250 g ai/ha; 0 to 100 scale where 0 is no effect and 100 is complete control; 13 to 15 d
In short: as §2

[17] = test system: barnyardgrass (Echinochloa crus-galli); assay: Test B flooded paddy test; details: Flood, 250 g ai/ha; 0 to 100 scale where 0 is no effect and 100 is complete control; 13 to 15 d
In short: as §2

[18] = test system: sedge, umbrella (small-flower umbrella sedge, Cyperus difformis); assay: Test B flooded paddy test; details: Flood, 250 g ai/ha; 0 to 100 scale where 0 is no effect and 100 is complete control; 13 to 15 d
In short: as §2

[19] = Preemergence, 500 g ai/ha, 0 is no effect, 100 is complete control
[20] = 500 g ai/ha, postemergence, 0 to 100 scale, 0 no effect, 100 complete control
[21] = Postemergence, 125 g ai/ha, visual injury, 0 to 100 scale (0 no effect, 100 complete control), approx. 10 d
[22] = 125 g ai/ha, postemergence, approx. 10 d

Row | Structure (SMILES) | Plant response rating, Ryegrass, Italian [1] | Plant response rating, Foxtail, Giant [2] | Plant response rating, Ragweed [3] | Plant response rating, Kochia (Kochia (Kochia scoparia) [4]) | Plant response rating, Barnyardgrass [5] | Plant response rating, Pigweed [6] | Ryegrass, Italian plant response rating [7] | Plant response rating, Ryegrass, Italian [7] | Corn plant response rating (corn (Zea mays)) | Plant response rating, Corn (corn (Zea mays)) | Foxtail, Giant plant response rating [8] | Plant response rating, Foxtail, Giant [8] | Ragweed plant response rating [9] | Plant response rating, Ragweed [9] | Kochia plant response rating (Kochia (Kochia scoparia) [10]) | Plant response rating, Kochia (Kochia (Kochia scoparia) [10]) | Galium plant response rating [11] | Plant response rating, Galium [11] | Plant response rating, Barnyardgrass [12, 20] | Wheat plant response rating [13] | further results
1 | O=C1NCC(c2cccc(OC(F)(F)C(F)F)c2)C1C(=O)Nc1ccccc1C(F)F (stereo not drawn) [Compound 391] | 20 | 90 | 80 | 30 | 80 | 70 | 30 | 40 | 40 | 70 | 90 | 90 | 20 | 30 | 0 | 60 | 60 | 60 | 80 | 0 | Ryegrass, Italian plant response rating (0 to 100 scale) [1, 19]: 50; Foxtail, Giant plant response rating (0 to 100 scale) [2, 19]: 90; Ragweed plant response rating (0 to 100 scale) [3, 19]: 80; Kochia plant response rating (0 to 100 scale) (Kochia (Kochia scoparia) [4]; [19]): 50; Barnyardgrass plant response rating (0 to 100 scale) [5, 19]: 90; Pigweed plant response rating (0 to 100 scale) [6, 19]: 70; Plant response rating, Barnyardgrass [12, 21]: 60; Plant response rating, Wheat [13]: 50; Plant response rating, Blackgrass [14, 20]: 70; Plant response rating, Blackgrass [14, 21]: 50; Pigweed plant response rating [15]: 30; Plant response rating, Pigweed [15]: 50; Plant response rating, Rice (rice (Oryra sativa)): 0; Plant response rating, Ducksalad [16]: 100; Plant response rating, Barnyardgrass [17]: 40; Plant response rating, Sedge, Umbrella [18]: 0
2 | CN1CC(c2ccc(C(F)(F)F)c(F)c2)C(C(=O)Nc2ccc(F)cc2F)C1=O (stereo not drawn) [Compound 398] | 30 | 90 | 20 | 70 | 90 | 70 | 20 | 50 | 60 | 70 | 80 | 90 | 0 | 0 | 60 | 80 | 50 | 60 | 90 | 20 | Ryegrass, Italian plant response rating (0 to 100 scale, 0 is no effect, 100 is complete control) ([1]; Preemergence, 500 g ai/ha): 70; Foxtail, Giant plant response rating (0 to 100 scale, 0 is no effect, 100 is complete control) ([2]; Preemergence, 500 g ai/ha): 90; Ragweed plant response rating (0 to 100 scale, 0 is no effect, 100 is complete control) ([3]; Preemergence, 500 g ai/ha): 30; Kochia plant response rating (0 to 100 scale, 0 is no effect, 100 is complete control) (Kochia (Kochia scoparia) [4]; Preemergence, 500 g ai/ha): 90; Barnyardgrass plant response rating (0 to 100 scale, 0 is no effect, 100 is complete control) ([5]; Preemergence, 500 g ai/ha): 90; Pigweed plant response rating (0 to 100 scale, 0 is no effect, 100 is complete control) ([6]; Preemergence, 500 g ai/ha): 90; Barnyardgrass plant response rating [12, 22]: 90; Plant response rating, Wheat [13]: 70; Blackgrass plant response rating [14, 22]: 40; Plant response rating, Blackgrass [14, 20]: 60; Pigweed plant response rating [15]: 50; Plant response rating, Pigweed [15]: 60; Plant response rating, Rice (rice (Oryra sativa)): 20; Plant response rating, Ducksalad [16]: 80; Plant response rating, Barnyardgrass [17]: 60; Plant response rating, Sedge, Umbrella [18]: 0
3 | Cc1cc(C2CN(C)C(=O)C2C(=O)Nc2ccc(F)cc2F)ccc1F (stereo not drawn) [Compound 404] | 0 | 90 | 0 | 60 | 90 | 30 | 40 | 70 | 40 | 80 | 90 | 90 | 30 | 50 | 60 | 70 | 50 | 50 | 90 | 50 | Ryegrass, Italian plant response rating (0 to 100 scale, 0 is no effect, 100 is complete control) ([1]; Preemergence, 500 g ai/ha): 80; Foxtail, Giant plant response rating (0 to 100 scale, 0 is no effect, 100 is complete control) ([2]; Preemergence, 500 g ai/ha): 90; Ragweed plant response rating (0 to 100 scale, 0 is no effect, 100 is complete control) ([3]; Preemergence, 500 g ai/ha): 50; Kochia plant response rating (0 to 100 scale, 0 is no effect, 100 is complete control) (Kochia (Kochia scoparia) [4]; Preemergence, 500 g ai/ha): 70; Barnyardgrass plant response rating (0 to 100 scale, 0 is no effect, 100 is complete control) ([5]; Preemergence, 500 g ai/ha): 90; Pigweed plant response rating (0 to 100 scale, 0 is no effect, 100 is complete control) ([6]; Preemergence, 500 g ai/ha): 60; Barnyardgrass plant response rating [12, 22]: 90; Plant response rating, Wheat [13]: 80; Blackgrass plant response rating [14, 22]: 40; Plant response rating, Blackgrass [14, 20]: 60; Pigweed plant response rating [15]: 20; Plant response rating, Pigweed [15]: 60; Plant response rating, Rice (rice (Oryra sativa)): 30; Plant response rating, Ducksalad [16]: 100; Plant response rating, Barnyardgrass [17]: 80; Plant response rating, Sedge, Umbrella [18]: 0
